Several values for one entry are separate records, joined by “and”; a condition that tells them apart may be missing. Equal values may be shown once.
How the values were obtained:
[1] = human, in vivo, po
[2] = human, in vivo, po; remark: listed apart in the source
[3] = rat, in vivo; cited from earlier work
[4] = rhesus monkey, in vivo; cited from earlier work

COc1cc2c(c3oc(=O)c4c(c13)CCC4=O)[C@@H]1C=CO[C@@H]1O2 [AFB1, aflatoxin B1]
AUC_Extrap of AFB1 equivalents in plasma [1]: 50.9 ± 8% | Tmax of AFB1 equivalents in plasma [1]: 1.0 h and ~ 1 h | ka (absorption rate constant) of AFB1 equivalents in plasma [1]: 5.05 ± 1.10 h⁻¹ | t1/2α (harmonic mean) of AFB1 equivalents in plasma [1]: 2.86 h | Á (disposition rate constant) of AFB1 equivalents in plasma [1]: 0.24 ± 0.06 h⁻¹ | β (disposition rate constant) of AFB1 equivalents in plasma [1]: 0.01 ± 0.003 h⁻¹ | AFB1 dose excreted in urine in the first 72 hours [2]: 29.0 ± 2.31% and 34.4 ± 5.60% and 33.3 ± 2.79% | in situ absorption rate constant [3]: 5.84 ± 0.05 h⁻¹ | dose eliminated in urine as unbound within the first 24 hours [4]: ~ 30% | dose remaining in the liver [4]: 13.6% | dose remaining in the plasma [4]: 5.8%

From paper PMC5314947 (Cancer prevention research (Philadelphia, Pa.), 2009)
